Measured values as given in ChEMBL document CHEMBL4840358, “Discovery of Modified Amidate (ProTide) Prodrugs of Tenofovir with Enhanced Antiviral Properties” (J Med Chem, 2021).

Legend:
Hepatitis B virus = assay: Antiviral activity against HBV infected in human HepG2-hNTCP cells assessed as reduction in HBV DNA incubated for day 1 followed by compound washout and fresh compound addition on following day and day 3, 6 and 10 measured on day 14 post infection by qPCR analysis; assay type: functional, organism-based
[1] = Cytotoxicity against human HepG2-hNTCP cells incubated for 3 days by XTT assay; assay type: cell-based; details: time 3 day
[2] = test system: Human immunodeficiency virus 1; assay: Antiviral activity against HIV-1 infected in MT4 cells assessed as reduction in virus-induced cytopathic effect preincubated for 1 hr followed by viral infection and measured after 5 days by XTT assay; assay type: functional, organism-based; details: Human immunodeficiency virus 1, MT4
[3] = Cytotoxicity against in human MT4 cells after 5 days by XTT assay; assay type: cell-based; details: time 5 day
[4] = Selectivity index, ratio of CC50 for human MT-4 cells to EC50 for HIV-1 infected in MT-4 cells; assay type: toxicity, cell-based; details: read-out: Ratio CC50/EC50
[5] = biological target: T1, Lysosomal protective protein (Homo sapiens) (UniProt P10619); assay: Substrate activity at cathepsin A (unknown origin) at 30 uM after 30 mins
T1 sequence (whole entry): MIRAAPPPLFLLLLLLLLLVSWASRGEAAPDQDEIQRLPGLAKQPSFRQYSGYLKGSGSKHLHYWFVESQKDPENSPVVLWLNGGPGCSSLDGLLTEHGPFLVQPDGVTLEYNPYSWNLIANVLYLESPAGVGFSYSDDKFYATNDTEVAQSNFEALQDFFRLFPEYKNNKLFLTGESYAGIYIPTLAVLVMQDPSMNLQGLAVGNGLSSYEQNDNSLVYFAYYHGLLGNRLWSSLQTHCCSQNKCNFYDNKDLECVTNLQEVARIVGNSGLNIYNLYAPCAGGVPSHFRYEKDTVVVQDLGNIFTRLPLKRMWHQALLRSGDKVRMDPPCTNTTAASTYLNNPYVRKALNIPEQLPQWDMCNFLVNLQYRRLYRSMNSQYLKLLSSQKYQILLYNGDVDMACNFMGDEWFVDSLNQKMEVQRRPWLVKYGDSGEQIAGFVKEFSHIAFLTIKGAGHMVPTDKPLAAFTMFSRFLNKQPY

[6] = Drug uptake in human CCRF-CEM cells assessed as intracellular intact prodrug level at 50 uM after 45 mins by ECHO-MS analysis; assay type: ADME, cell-based; details: 0.75 h
[7] = Drug uptake in human CCRF-CEM cells assessed as released tenofovir level at 50 uM after 45 mins by ECHO-MS analysis; assay type: ADME, cell-based; details: 0.75 h
[8] = Stability of compound in pooled human plasma assessed as compound remaining at 5 uM measured for 120 to 240 mins by ECHO-MS analysis; assay type: ADME, cell-free; details: time 120-240 min, read-out: Stability
[9] = Stability of compound in pooled human hepatic microsomes assessed as compound remaining at 5 uM measured upto 30 mins in presence of NADPH by ECHO-MS analysis; assay type: ADME, Microsome; details: pooled liver microsomes, read-out: Stability

Row | Structure (SMILES) | EC50 (Hepatitis B virus) [nM] | CC50 at 72 h [1] [nM] | EC50 [2] [nM] | CC50 at 120 h [3] [nM] | also measured
1 | CC(C)OC(=O)[C@H](C)NP(=O)(CO[C@H](C)Cn1cnc2c(N)ncnc21)Oc1ccc(C[C@@H](C(=O)CC2CCCC2)N(CCCc2ccccc2)Cc2ccccc2)cc1 (stereo not given in full) | 1.3 | 46000 |  |  | 
2 | CC(C)OC(=O)[C@H](C)N[P@](=O)(CO[C@H](C)Cn1cnc2c(N)ncnc21)Oc1ccc(C[C@H](NC(=O)OCc2ccccc2)C(=O)NC2CCCC2)cc1 |  |  | 13 | 28000 | selectivity ratio [4]: 2150
3 | COC(=O)[C@H](Cc1ccc(O[P@@](=O)(CO[C@H](C)Cn2cnc3c(N)ncnc32)N[C@@H](C)C(=O)OC(C)C)cc1)NC(C)=O | 3.2 | > 50000 | 720 | > 50000 | 
4 | CC(C)OC(=O)[C@H](C)N[P@](=O)(CO[C@H](C)Cn1cnc2c(N)ncnc21)Oc1ccc(C[C@H](NC(=O)OCc2ccccc2)C(=O)OC(C)C)cc1 |  |  | 0.6 | 10000 | selectivity ratio [4]: 16700
5 | CC(C)OC(=O)[C@H](C)N[P@@](=O)(CO[C@H](C)Cn1cnc2c(N)ncnc21)Oc1ccc(C[C@H](NC(=O)OCc2ccccc2)C(=O)CC2CCCC2)cc1 | 3.4 | > 50000 | 0.15 | 7600 | Activity [5]: 30.3 pmol/min/mg; Drug uptake [6]: 248 pmol; Drug uptake [7]: 78.88 pmol
6 | COC(=O)[C@H](Cc1ccc(OP(=O)(CO[C@H](C)Cn2cnc3c(N)ncnc32)N[C@@H](C)C(=O)OC(C)C)cc1)NC(=O)OCc1ccccc1 (stereo not given in full) | 0.6 | 15000 |  |  | 
7 | CC(C)OC(=O)[C@H](C)NP(=O)(CO[C@H](C)Cn1cnc2c(N)ncnc21)Oc1ccc(C[C@@H](C(=O)OC2CCCC2)N(CCCc2ccccc2)Cc2ccccc2)cc1 (stereo not given in full) | 1.2 | > 50000 |  |  | 
8 | CC(C)OC(=O)[C@H](C)N[P@](=O)(CO[C@H](C)Cn1cnc2c(N)ncnc21)Oc1ccc(C[C@H](NCCCc2ccccc2)C(=O)OC2CCCC2)cc1 | 19 | > 50000 | 0.28 | 6000 | selectivity ratio [4]: 21400
9 | CC(C)CCOC(=O)[C@H](Cc1ccc(O[P@@](=O)(CO[C@H](C)Cn2cnc3c(N)ncnc32)N[C@@H](C)C(=O)OC(C)C)cc1)NC(=O)OCc1ccccc1 |  |  | 0.56 | 8000 | selectivity ratio [4]: 14300
10 | CC(C)OC(=O)[C@H](C)NP(=O)(CO[C@H](C)Cn1cnc2c(N)ncnc21)Oc1ccc(C[C@H](NC(=O)OCc2ccccc2)C(=O)OC(C)C)cc1 (stereo not given in full) | 4.2 | > 50000 | 1.6 | 9400 | 
11 | CC(C)CCOC(=O)[C@H](Cc1ccc(OP(=O)(CO[C@H](C)Cn2cnc3c(N)ncnc32)N[C@@H](C)C(=O)OC(C)C)cc1)NC(=O)OCc1ccccc1 (stereo not given in full) | 0.2 | > 50000 | 0.4 | 8400 | 
12 | CC(C)OC(=O)[C@H](C)N[P@@](=O)(CO[C@H](C)Cn1cnc2c(N)ncnc21)Oc1ccc(C[C@@H](NC(=O)OCc2ccccc2)C(=O)OC2CCCC2)cc1 |  |  | 0.33 | 15000 | selectivity ratio [4]: 45500
13 | CC(C)OC(=O)[C@H](C)NP(=O)(CO[C@H](C)Cn1cnc2c(N)ncnc21)Oc1ccc(C[C@H](NC(=O)OCc2ccccc2)C(=O)OC2CCCC2)cc1 (stereo not given in full) | 0.7 | > 50000 | 0.9 | 8300 | 
14 | CCOC(=O)[C@H](Cc1ccc(OP(=O)(CO[C@H](C)Cn2cnc3c(N)ncnc32)N[C@@H](C)C(=O)OC(C)C)cc1)NC(=O)OCc1ccccc1 (stereo not given in full) | 3.6 | > 50000 | 17 | 11000 | 
15 | COC(=O)[C@H](Cc1ccc(O[P@](=O)(CO[C@H](C)Cn2cnc3c(N)ncnc32)N[C@@H](C)C(=O)OC(C)C)cc1)NC(=O)C(F)(F)F | 1.6 | > 50000 | 540 | > 50000 | 
16 | COC(=O)[C@H](Cc1ccc(O[P@](=O)(CO[C@H](C)Cn2cnc3c(N)ncnc32)N[C@@H](C)C(=O)OC(C)C)cc1)NC(=O)OCc1ccccc1 |  |  | 30 | 8500 | 
17 | COCCOCCOCCOC(=O)[C@H](Cc1ccc(OP(=O)(CO[C@H](C)Cn2cnc3c(N)ncnc32)N[C@@H](C)C(=O)OC(C)C)cc1)NC(=O)OCc1ccccc1 (stereo not given in full) |  |  | 470 | > 50000 | 
18 | COC(=O)[C@@H](N)Cc1ccc(O[P@@](=O)(CO[C@H](C)Cn2cnc3c(N)ncnc32)N[C@@H](C)C(=O)OC(C)C)cc1 |  |  | 350 | > 50000 | 
19 | CCCCCCOC(=O)[C@H](Cc1ccc(O[P@@](=O)(CO[C@H](C)Cn2cnc3c(N)ncnc32)N[C@@H](C)C(=O)OC(C)C)cc1)NC(=O)OCc1ccccc1 |  |  | 16 | 13000 | 
20 | COC(=O)[C@H](Cc1ccc(O[P@@](=O)(CO[C@H](C)Cn2cnc3c(N)ncnc32)N[C@@H](C)C(=O)OC(C)C)cc1)NC(=O)OCc1ccccc1 |  |  | 16 | 16000 | 
21 | COC(=O)[C@H](Cc1ccc(O[P@](=O)(CO[C@H](C)Cn2cnc3c(N)ncnc32)N[C@@H](C)C(=O)OC(C)C)cc1)NC(C)=O | 7.2 | > 50000 | 2200 | > 50000 | 
22 | COC(=O)[C@H](Cc1ccc(O[P@@](=O)(CO[C@H](C)Cn2cnc3c(N)ncnc32)N[C@@H](C)C(=O)OC(C)C)cc1)N1CCCC1 |  |  | 16 | 27000 | 
23 | CCC(CC)COC(=O)[C@H](Cc1ccc(O[P@@](=O)(CO[C@H](C)Cn2cnc3c(N)ncnc32)N[C@@H](C)C(=O)OC(C)C)cc1)NC(=O)OCc1ccccc1 |  |  | 50 | 38000 | 
24 | CC(C)OC(=O)[C@H](C)N[P@@](=O)(CO[C@H](C)Cn1cnc2c(N)ncnc21)Oc1ccc(C[C@H](NCCCc2ccccc2)C(=O)OC2CCCC2)cc1 | 4 | > 50000 | 0.68 | 7600 | 
25 | CC(C)OC(=O)[C@H](C)N[P@](=O)(CO[C@H](C)Cn1cnc2c(N)ncnc21)Oc1ccc(C[C@H](NCCCc2ccccc2)C(=O)CC2CCCC2)cc1 |  |  | 0.06 | 48000 | remaining at 5 µM [8]: 77%; remaining at 0.5 h, 5 µM [9]: 1%; selectivity ratio [4]: 800000; Activity [5]: 16.3 pmol/min/mg; Drug uptake [6]: 11.37 pmol; Drug uptake [7]: 304.5 pmol
26 | CC(C)OC(=O)[C@H](C)N[P@@](=O)(CO[C@H](C)Cn1cnc2c(N)ncnc21)Oc1ccc(C[C@H](NC(=O)CCc2ccccc2)C(=O)OC2CCCC2)cc1 | 1.4 | > 50000 | 0.36 | 11000 | Activity [5]: 29.5 pmol/min/mg; Drug uptake [6]: 0.12 pmol; Drug uptake [7]: 27.89 pmol
27 | COC(=O)[C@H](Cc1ccc(O[P@@](=O)(CO[C@H](C)Cn2cnc3c(N)ncnc32)N[C@@H](C)C(=O)OC(C)C)cc1)NC(=O)C(F)(F)F | 0.27 | > 50000 | 150 | > 50000 | 
28 | CC(C)OC(=O)[C@H](C)N[P@](=O)(CO[C@H](C)Cn1cnc2c(N)ncnc21)Oc1ccc(C[C@H](NC(=O)OCc2ccccc2)C(=O)OC2CCCC2)cc1 |  |  |  |  | Activity [5]: 33.6 pmol/min/mg
29 | CCCCCCOC(=O)[C@H](Cc1ccc(OP(=O)(CO[C@H](C)Cn2cnc3c(N)ncnc32)N[C@@H](C)C(=O)OC(C)C)cc1)NC(=O)OCc1ccccc1 (stereo not given in full) | 1.4 | > 50000 | 1.8 | 8400 | 
